The values that follow come from publication PMC9788418, “Design, Synthesis and Biological Evaluation of Syn and Anti-like Double Warhead Quinolinones Bearing Dihydroxy Naphthalene Moiety as Epidermal Growth Factor Receptor Inhibitors with Potential Apoptotic Antiproliferative Action” (Molecules, 2022).

As usually defined, the IC50 is the point on the concentration scale where inhibition reaches its midpoint. What is called GI50 is the concentration that inhibits growth by half. Read a high GI50 as lower sensitivity of the cells. As usually defined, the melting point is the temperature, or range, at which the solid turns liquid.

Data set [1] deals with Panc-1 (pancreas cancer cell line). Description: Antiproliferative assay. The settings on record: Homo sapiens, PANC-1; read-out: Antiproliferative Activity IC50 ± SEM, Panc-1. Type of data set: cell-based, human. The procedure: 4.2. Biological evaluation
4.2.1. Cytotoxic activity using MTT Assay and evaluation of IC50 […]
cells were seeded at a density of 10^4 cells mL-1 in flat-bottomed culture plates containing 96 wells each. After 24 h, medium was removed from the plates and the compounds in (in 0.1% DMSO) were added (in 200 μL medium to yield a final concentration of 0.1% v/v) to the wells of plates. A single […]
incubation, medium was removed completely from the plates followed by addition of MTT (0.4 mg/mL in medium) to each well and subsequent incubation of plates for 3h. MTT (along with the medium) was removed and DMSO (150μL) was added to each well of the culture plates, followed by vortexing and subsequent measurement of absorbance (at 540 nm) using microplate reader. The data […]
4.2.1.2. Assay for antiproliferative effect
To explore the antiproliferative potential of compounds MTT assay was performed according to previously reported procedure using different cell lines to explore the antiproliferative potential of compounds propidium iodide fluorescence assay was performed using different cell lines. To calculate the total nuclear DNA, a fluorescent dye (propidium iodide, PI) is used which can attach to the DNA, thus offering a quick and precise technique. PI cannot pass through the cell membrane and its signal intensity can be considered as directly proportional to quantity of cellular DNA. Cells whose cell membranes are damaged or have changed permeability are counted as dead ones. The assay was performed by seeding the cells of different cell lines at a density of 3000-7500 cells/well (in 200µl […]
atmospheric conditions. The medium was removed; the compounds were added to the plates at 10 µM concentrations (in 0.1% DMSO) in triplicates, followed by incubation for 48 h. DMSO (0.1%) was used as control. After incubation, medium was removed followed by the addition of PI (25 µl, 50µg/mL in water/medium) to each well of the plates. At -80 °C, the plates were allowed to freeze for 24 h, followed by thawing at 25 °C. A fluorometer (Polar-Star BMG Tech) was used to record the readings at excitation and emission wavelengths of 530 and 620 nm for each well. The percentage cytotoxicity of compounds was calculated using the following formula:
Where ATC= Absorbance of treated cells and AC= Absorbance of control. […]
positive control in the assay.

The target in data set [2] is EGFR (Homo sapiens, UniProt P00533). Description: EGFR inhibitory assay (EGFR-TK, DELFIA/time-resolved fluorometry).
Protocol: EGFR-TK assay was performed to evaluate the inhibitory potency of novel compounds against
EGFR. Baculoviral expression vectors including pBlueBacHis2B and pFASTBacHTc were used
5ʹ upstream to the EGFR sequence comprised a sequence that encoded (His)6. Sf-9 cells were infected for 72h for protein expression. The pellets of Sf-9 cells were solubilized in a buffer containing sodium vanadate (100 µM), aprotinin (10 µg/mL), triton (1%), HEPES buffer (50mM), ammonium molybdate (10 µM), benzamidine HCl (16 µg/mL), NaCl (10 mM), leupeptin (10 µg/mL) and pepstatin (10 µg/mL) at 0°C for 20 min at pH 7.4, followed by centrifugation for 20 min.
To eliminate the non-specifically bound material, a Ni-NTA super flow packed column was used to pass through and wash the crude extract supernatant first with 10 mM and then with 100 mM imidazole. Histidine-linked proteins were first eluted with 250 and then with 500 mM imidazole after (1 picture or pasted object on this page, not shown here)
dialysis against NaCl (50 mM), HEPES (20 mM), glycerol (10%) and 1 µg/mL each of aprotinin, leupeptin and pepstatin for 120 min. The purification was performed either at 4 °C or on ice. To
record autophosphorylation level, EGFR kinase assay was carried out based on DELFIA/Time-
Resolved Fluorometry. The compounds were first dissolved in DMSO absolute, after dilution to
Each compound (10 µL) was incubated
with recombinant enzyme (10 µL, 5 ng for EGFR, 1:80 dilution in 100 mM HEPES) for 10 min at
25 °C, after the addition of 5X buffer (10 µL, containing 2 mM MnCl2, 100 µM Na3VO4, 20 mM HEPES and 1 mM DTT) and ATP-MgCl2 (20 µL, containing 0.1 mM ATP and 50 mM MgCl2) and
incubation for 1h. The negative and positive controls were included in each plate by the incubation
of enzyme either with or without ATP-MgCl2. The liquid was removed after incubation and the plates
were washed thrice using wash buffer. Europium-tagged antiphosphotyrosine antibody (75 µL, 400
ng) was added to each well followed by incubation of 1h and then washing of the plates using buffer.
The enhancement solution was added to each well and the signal was recorded at excitation and
The autophosphorylation percentage inhibition by compounds was calculated using the following equation:
In data set [3] the test system is four tested cancer cell lines (A-549, MCF-7, Panc-1, HT-29). Description: Antiproliferative assay, average over the four cell lines. Type of data set: cell-based, human. Particulars: for GI50: Homo sapiens, mean of the four cancer cell lines. How it is done:
The newly synthesized compounds were tested for antiproliferative activity against four different types of cancer cells: A-549 (epithelial cancer cell line), MCF-7 (breast cancer cell line), Panc-1 (pancreas cancer cell line), and HT-29 (colon cancer cell line).
After 24 h, medium was removed from the plates and the compounds in (in 0.1% DMSO) were added (in 200 μL medium to yield a final concentration of 0.1% v/v) to the wells of plates. A single compound was designated with four wells followed by incubation of plates for 96h at 37°C. After incubation, medium was removed completely from the plates followed by addition of MTT (0.4 mg/mL in medium) to each well and subsequent incubation of plates for 3h. MTT (along with the medium) was removed and DMSO (150μL) was added to each well of the culture plates, followed by vortexing and subsequent measurement of absorbance (at 540 nm) using microplate reader. The data are shown as percentage inhibition of proliferation in comparison with controls containing 0.1% 4.2.1.2. Assay for antiproliferative effect
To explore the antiproliferative potential of compounds MTT assay was performed according to previously reported procedure using different cell lines to explore the antiproliferative potential of compounds propidium iodide fluorescence assay was performed using different cell lines. To calculate the total nuclear DNA, a fluorescent dye (propidium iodide, PI) is used which can attach to the DNA, thus offering a quick and precise technique. PI cannot pass through the cell membrane and its signal intensity can be considered as directly proportional to quantity of cellular DNA. Cells whose cell membranes are damaged or have changed permeability are counted as dead ones. The assay was performed by seeding the cells of different cell lines at a density of 3000-7500 cells/well (in 200µl medium) in culture plates followed by incubation for 24h at 37 °C in humidified 5% CO2/95% air atmospheric conditions. The medium was removed; the compounds were added to the plates at 10 µM concentrations (in 0.1% DMSO) in triplicates, followed by incubation for 48 h. DMSO (0.1%) was used as control. After incubation, medium was removed followed by the addition of PI (25 µl, 50µg/mL in water/medium) to each well of the plates. At -80 °C, the plates were allowed to freeze for 24 h, followed by thawing at 25 °C. A fluorometer (Polar-Star BMG Tech) was used to record the readings at excitation and emission wavelengths of 530 and 620 nm for each well. The percentage cytotoxicity of compounds was calculated using the following formula:
Where ATC= Absorbance of treated cells and AC= Absorbance of control. Erlotinib was used as positive control in the assay.

Sequence of EGFR (P00533 669-1210): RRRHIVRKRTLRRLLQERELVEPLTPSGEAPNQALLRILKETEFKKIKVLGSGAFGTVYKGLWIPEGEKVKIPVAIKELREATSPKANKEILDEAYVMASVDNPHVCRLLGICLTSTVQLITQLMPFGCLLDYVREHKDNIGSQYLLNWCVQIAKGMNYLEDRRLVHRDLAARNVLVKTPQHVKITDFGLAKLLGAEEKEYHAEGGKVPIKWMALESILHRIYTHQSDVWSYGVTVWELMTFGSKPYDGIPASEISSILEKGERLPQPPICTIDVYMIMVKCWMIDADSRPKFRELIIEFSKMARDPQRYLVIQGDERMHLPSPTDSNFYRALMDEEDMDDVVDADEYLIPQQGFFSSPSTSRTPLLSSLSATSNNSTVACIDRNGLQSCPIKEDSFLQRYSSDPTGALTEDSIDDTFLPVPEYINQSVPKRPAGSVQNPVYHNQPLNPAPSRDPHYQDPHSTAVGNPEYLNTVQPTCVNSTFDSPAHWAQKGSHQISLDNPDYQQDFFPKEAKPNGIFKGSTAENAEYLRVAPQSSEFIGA

As to `O=c1cc(-n2cc(COc3cccc4cccc(OCc5cn(-c6cc(=O)[nH]c7ccccc67)nn5)c34)nn2)c2ccccc2[nH]1` [Compound 4a, 4,4′-(((naphthalene-1,8-diylbis(oxy))bis(methylene))bis(1H-1,2,3-triazole-4,1-diyl))-bis-(quinolin-2(1H)-one)], the melting point is > 360 °C. Further, in data set [1], the 50% inhibitory concentration (IC50) came out at 36 ± 3 nM. For the same compound, inhibition in data set [2] was half-maximal at 64 ± 6 nM (IC50). Moreover, the GI50 in data set [3] was 34 nM.
Regarding `Cc1ccc2[nH]c(=O)cc(-n3cc(COc4cccc5cccc(OCc6cn(-c7cc(=O)[nH]c8ccc(C)cc78)nn6)c45)nn3)c2c1` [Compound 4b, 4,4′-(((naphthalene-1,8-diylbis(oxy))bis(methylene))bis(1H-1,2,3-triazole-4,1-diyl))-bis(6-methylquinolin-2(1H)-one)], the results for the IC50 in data set [1] and in data set [2] were 46 ± 4 nM and 93 ± 9 nM, respectively. Further, in data set [2] (relative to erlotinib), the “fold less effective than erlotinib (EGFR IC50)” value is recorded as “roughly 1.3 fold”. For the same compound, in data set [3], the GI50 came to 45 nM. Also, the “fold more potent than 4c (GI50)” value in data set [3] (relative to 4c) turned out to be 1.8 fold. The “fold less potent than erlotinib (GI50)” value in data set [3] (relative to erlotinib) was 1.4 fold.
